pIC50: −log10 of the molar value.
The molecules below were run against T1, Nav1.7 (or SCN9A) channel; HEK cells stably transfected with hSCN9A (Homo sapiens, UniProt Q15858) (assay: Nav1.7 block, PatchXpress 7000 automated whole-cell voltage clamp, estimated IC50 (EIC50)). Details: PatchXpress platform; hSCN9A HEK cells held at V1/2 of inactivation; estimated IC50.
T1 construct: expressed in transfected cells
Format: cell-based

T1 sequence (Q15858 whole entry): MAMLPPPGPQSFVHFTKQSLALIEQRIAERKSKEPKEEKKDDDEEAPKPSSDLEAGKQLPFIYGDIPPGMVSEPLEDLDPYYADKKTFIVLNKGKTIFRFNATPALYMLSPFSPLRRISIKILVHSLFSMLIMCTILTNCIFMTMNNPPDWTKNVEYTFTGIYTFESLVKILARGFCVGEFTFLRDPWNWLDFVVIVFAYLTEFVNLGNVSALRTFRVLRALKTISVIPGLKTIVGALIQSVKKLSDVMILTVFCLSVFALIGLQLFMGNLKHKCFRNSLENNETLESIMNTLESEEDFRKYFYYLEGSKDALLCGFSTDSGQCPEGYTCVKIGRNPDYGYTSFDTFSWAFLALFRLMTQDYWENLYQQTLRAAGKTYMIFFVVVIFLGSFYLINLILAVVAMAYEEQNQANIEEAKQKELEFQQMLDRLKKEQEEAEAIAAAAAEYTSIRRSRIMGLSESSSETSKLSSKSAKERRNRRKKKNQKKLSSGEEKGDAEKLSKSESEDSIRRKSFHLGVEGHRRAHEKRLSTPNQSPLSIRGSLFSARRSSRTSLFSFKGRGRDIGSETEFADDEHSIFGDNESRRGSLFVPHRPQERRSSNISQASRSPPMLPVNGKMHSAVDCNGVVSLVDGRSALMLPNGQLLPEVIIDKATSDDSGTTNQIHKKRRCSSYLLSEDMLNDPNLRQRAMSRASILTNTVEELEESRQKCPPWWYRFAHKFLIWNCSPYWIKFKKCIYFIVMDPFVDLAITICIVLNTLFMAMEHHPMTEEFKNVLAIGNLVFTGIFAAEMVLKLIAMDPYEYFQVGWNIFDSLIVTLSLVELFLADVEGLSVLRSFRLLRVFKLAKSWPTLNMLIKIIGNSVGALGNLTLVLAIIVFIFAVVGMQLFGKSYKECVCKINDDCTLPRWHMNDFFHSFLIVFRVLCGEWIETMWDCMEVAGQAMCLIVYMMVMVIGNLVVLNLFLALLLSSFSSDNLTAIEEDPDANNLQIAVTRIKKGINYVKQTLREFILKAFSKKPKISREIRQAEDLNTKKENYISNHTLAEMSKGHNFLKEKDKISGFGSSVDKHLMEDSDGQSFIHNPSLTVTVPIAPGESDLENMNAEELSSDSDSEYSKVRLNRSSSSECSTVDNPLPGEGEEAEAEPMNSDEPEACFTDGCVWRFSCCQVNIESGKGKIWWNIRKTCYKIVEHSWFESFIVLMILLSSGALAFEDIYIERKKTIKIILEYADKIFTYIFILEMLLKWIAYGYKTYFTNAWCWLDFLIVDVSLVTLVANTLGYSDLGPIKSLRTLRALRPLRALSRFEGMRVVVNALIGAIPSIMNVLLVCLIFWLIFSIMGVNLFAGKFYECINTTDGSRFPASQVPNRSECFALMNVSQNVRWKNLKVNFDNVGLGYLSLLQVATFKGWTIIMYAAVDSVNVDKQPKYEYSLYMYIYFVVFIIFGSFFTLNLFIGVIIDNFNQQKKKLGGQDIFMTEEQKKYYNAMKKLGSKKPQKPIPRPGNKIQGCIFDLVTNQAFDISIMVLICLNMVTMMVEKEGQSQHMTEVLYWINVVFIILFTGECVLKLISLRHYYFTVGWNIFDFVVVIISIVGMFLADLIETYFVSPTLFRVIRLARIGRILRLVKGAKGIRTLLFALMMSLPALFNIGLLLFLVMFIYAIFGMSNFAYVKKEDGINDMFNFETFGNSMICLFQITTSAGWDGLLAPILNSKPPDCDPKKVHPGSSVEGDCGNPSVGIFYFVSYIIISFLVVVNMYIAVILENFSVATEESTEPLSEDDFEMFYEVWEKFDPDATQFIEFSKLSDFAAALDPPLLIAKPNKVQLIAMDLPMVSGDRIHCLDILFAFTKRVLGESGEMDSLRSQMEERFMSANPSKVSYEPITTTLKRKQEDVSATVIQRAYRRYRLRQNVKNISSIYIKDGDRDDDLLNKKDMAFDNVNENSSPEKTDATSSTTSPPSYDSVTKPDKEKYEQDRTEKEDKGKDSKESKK

| Molecule | pIC50 | IC50 [nM] |
| --- | --- | --- |
| 3-fluoro-4-(4-methyl-2-(1-methyl-1H-pyrazol-3-yl)phenoxy)-N-(thiazol-2-yl)benzenesulfonamide [Example 215] | 5.19 |  |
| Cn1nccc1-c1cc(F)ccc1Oc1ccc(S(=O)(=O)Nc2ncns2)cc1C#N [Example 1, 3-cyano-4-(4-fluoro-2-(1-methyl-1H-pyrazol-5-yl)phenoxy)-N-(1,2,4-thiadiazol-5-yl)benzenesulfonamide] | 7.05 |  |
| Cc1nc(-c2ccccc2Oc2ccc(S(=O)(=O)Nc3nccs3)c(F)c2)cs1 [Example 2] | 6.09 |  |
| Cn1nccc1-c1ccccc1Oc1ccc(S(=O)(=O)Nc2nccs2)cc1F [Example 3, 3-fluoro-4-(2-(1-methyl-1H-pyrazol-5-yl)phenoxy)-N-(thiazol-2-yl)benzenesulfonamide] | 7.00 |  |
| Cc1cc(OC(C)C)ccc1-c1ccccc1Oc1ccc(S(=O)(=O)Nc2ncns2)cc1C#N [Example 4, 3-cyano-4-[(4′-isopropoxy-2′-methylbiphenyl-2-yl)oxy]-N-1,2,4-thiadiazol-5-ylbenzenesulfonamide] | 5.77 |  |
| CC(C)Oc1cccc(-c2cc(F)ccc2Oc2ccc(S(=O)(=O)Nc3ncns3)cc2C#N)c1 [Example 5, 3-cyano-4-[(5-fluoro-3′-isopropoxybiphenyl-2-yl)oxy]-N-1,2,4-thiadiazol-5-ylbenzenesulfonamide] | 7.15 |  |
| N#Cc1cc(S(=O)(=O)Nc2ncns2)ccc1Oc1ccc(F)cc1C1CC1 [Example 6, 3-cyano-4-(2-cyclopropyl-4-fluorophenoxy)-N-1,2,4-thiadiazol-5-ylbenzenesulfonamide] |  | >1000 |
| CCc1ccc(-c2ncccc2Oc2ccc(S(=O)(=O)Nc3ncns3)cc2C#N)cc1 [Example 7, 3-cyano-4-{[2-(4-ethylphenyl)pyridin-3-yl]oxy}-N-1,2,4-thiadiazol-5-ylbenzenesulfonamide] | 4.44 |  |
| CN(C)c1ncc(Oc2ccc(S(=O)(=O)Nc3ncns3)cc2C#N)c(-c2ccc(F)cc2)n1 [Example 8, 3-cyano-4-{[2-(dimethylamino)-4-(4-fluorophenyl)pyrimidin-5-yl]oxy}-N-1,2,4-thiadiazol-5-ylbenzenesulfonamide] | 6.35 |  |
| Cc1ccc(-c2nc(N(C)C)ncc2Oc2ccc(S(=O)(=O)Nc3ncns3)cc2C#N)cc1 [Example 9, 3-cyano-4-{[2-(dimethylamino)-4-(4-methylphenyl)pyrimidin-5-yl]oxy}-N-1,2,4-thiadiazol-5-ylbenzenesulfonamide] | 5.46 |  |
| COc1ccc(-c2ccccc2Oc2ccc(S(=O)(=O)Nc3ncns3)cc2C#N)c(C)c1 [Example 10, 3-cyano-4-[(4′-methoxy-2′-methylbiphenyl-2-yl)oxy]-N-1,2,4-thiadiazol-5-ylbenzenesulfonamide] | 6.20 |  |
| N#Cc1ccc(-c2ccccc2Oc2ccc(S(=O)(=O)Nc3ncns3)cc2C#N)cc1 [Example 11, 3-cyano-4-[(4′-cyanobiphenyl-2-yl)oxy]-N-1,2,4-thiadiazol-5-ylbenzenesulfonamide] | 6.37 |  |
| Cc1ccc(Oc2ccc(S(=O)(=O)Nc3ncns3)cc2C#N)c(-c2ccccc2)n1 [Example 12, 3-cyano-4-[(6-methyl-2-phenylpyridin-3-yl)oxy]-N-1,2,4-thiadiazol-5-ylbenzenesulfonamide] | 6.14 |  |
| COc1cc(-c2ccccc2Oc2ccc(S(=O)(=O)Nc3ncns3)cc2C#N)ccc1C#N [Example 13, 3-cyano-4-[(4′-cyano-3′-methoxybiphenyl-2-yl)oxy]-N-1,2,4-thiadiazol-5-ylbenzenesulfonamide] | 6.77 |  |
| CN(C)c1ncc(Oc2ccc(S(=O)(=O)Nc3ncns3)cc2C#N)c(-c2ccccc2F)n1 [Example 14, 3-cyano-4-{[2-(dimethylamino)-4-(2-fluorophenyl)pyrimidin-5-yl]oxy}-N-1,2,4-thiadiazol-5-ylbenzenesulfonamide] | 5.37 |  |
| Cc1ccc(-c2ncccc2Oc2ccc(S(=O)(=O)Nc3ncns3)cc2C#N)cc1 [Example 17, 3-cyano-4-{[2-(4-methylphenyl)pyridin-3-yl]oxy}-N-1,2,4-thiadiazol-5-ylbenzenesulfonamide] | 4.59 |  |
| N#Cc1cc(S(=O)(=O)Nc2ncns2)ccc1Oc1cnc(N)nc1-c1ccc(Cl)cc1 [Example 18, 4-{[2-amino-4-(4-chlorophenyl)pyrimidin-5-yl]oxy}-3-cyano-N-1,2,4-thiadiazol-5-ylbenzenesulfonamide] |  | >10000 |
| CCc1ccc(Oc2ccc(S(=O)(=O)Nc3ncns3)cc2C#N)c(-c2ccccc2)n1 [Example 19, 3-cyano-4-[(6-ethyl-2-phenylpyridin-3-yl)oxy]-N-1,2,4-thiadiazol-5-ylbenzenesulfonamide] | 6.14 |  |
| N#Cc1cc(S(=O)(=O)Nc2ncns2)ccc1Oc1nccnc1-c1ccccc1 [Example 20, 3-cyano-4-[(3-phenylpyrazin-2-yl)oxy]-N-1,2,4-thiadiazol-5-ylbenzenesulfonamide] |  | >10000 |
| N#Cc1cc(S(=O)(=O)Nc2ncns2)ccc1Oc1nnccc1-c1ccccc1 [Example 21, 3-cyano-4-[(4-phenylpyridazin-3-yl)oxy]-N-1,2,4-thiadiazol-5-ylbenzenesulfonamide] |  | >10000 |
| N#Cc1cc(S(=O)(=O)Nc2ncns2)ccc1Oc1cccnc1-c1ccccc1 [Example 22, 3-cyano-4-[(2-phenylpyridin-3-yl)oxy]-N-1,2,4-thiadiazol-5-ylbenzenesulfonamide] | 5.50 |  |
| N#Cc1cc(S(=O)(=O)Nc2ncns2)ccc1Oc1cnc(N)nc1-c1ccccc1 [Example 23, 4-[(2-amino-4-phenylpyrimidin-5-yl)oxy]-3-cyano-N-1,2,4-thiadiazol-5-ylbenzenesulfonamide] | 5.69 |  |
| N#Cc1cc(S(=O)(=O)Nc2ncns2)ccc1Oc1ccccc1-c1ccccc1 [Example 24, 4-(biphenyl-2-yloxy)-3-cyano-N-(1,2,4-thiadiazol-5-yl)benzenesulfonamide] | 6.96 |  |
| N#Cc1cc(S(=O)(=O)Nc2ncns2)ccc1Oc1ccc(F)cc1-c1ccnn1CC(F)(F)F [Example 26, 3-cyano-4-(4-fluoro-2-(1-(2,2,2-trifluoroethyl)-1H-pyrazol-5-yl)phenoxy)-N-(1,2,4-thiadiazol-5-yl)benzenesulfonamide] | 6.35 |  |
| Cc1ccc(Oc2ccc(S(=O)(=O)Nc3ncns3)cc2C#N)c(-c2c(C)cnn2C)c1 [Example 27, 3-cyano-4-(2-(1,4-dimethyl-1H-pyrazol-5-yl)-4-methylphenoxy)-N-(1,2,4-thiadiazol-5-yl)benzenesulfonamide] | 6.11 |  |
| Cc1ccc(Oc2ccc(S(=O)(=O)Nc3ncns3)cc2C#N)c(-c2nn(C)cc2C)c1 [Example 28, 3-cyano-4-(2-(1,4-dimethyl-1H-pyrazol-3-yl)-4-methylphenoxy)-N-(1,2,4-thiadiazol-5-yl)benzenesulfonamide] | 5.53 |  |

Same assay, conditions: estimated IC50; hSCN9A HEK cells, PatchXpress platform; Examples 283-814

| Molecule | pIC50 |
| --- | --- |
| 4-(4-chloro-2-piperidin-4-ylphenoxy)-2,5-difluoro-N-1,2,4-thiadiazol-5-ylbenzenesulfonamide [Example 636] | 8.08 |
| 4-[2-(2-aminopyridin-4-yl)-4-(trifluoromethoxy)phenoxy]-2,5-difluoro-N-1,2,4-thiadiazol-5-ylbenzenesulfonamide [Example 552] | 8.62 |
| 4-[2-fluoro-4-(3-methoxy-1-methyl-1H-pyrazol-5-yl)phenoxy]-N-1,3-thiazol-2-ylbenzenesulfonamide [Example 435] | 5.57 |

Source: patent US8541588B2, “Sulfonamide derivatives” (Pfizer Limited, priority 2009, dated 2013)
